Values quoted from earlier work, collected in publication PMC6530635, “A Novel Single-Site Mutation in the Catalytic Domain of Protoporphyrinogen Oxidase IX (PPO) Confers Resistance to PPO-Inhibiting Herbicides” (Frontiers in Plant Science, 2019).

Tested on: Amaranthus palmeri MIS-D population
Design: method as in Salas-Perez et al., 2017
Conditions: MIS-D field population; 1X dose; ref Salas-Perez et al., 2017; cited from earlier work

For `Cc1nn(-c2cc(CC(Cl)C(=O)O)c(Cl)cc2F)c(=O)n1C(F)F` (stereo not shown) [Carfentrazone], the “Frequency of resistant plants” value is given as 20%.
